Patent publication US11414385B2, “Compounds and methods for treating, detecting, and identifying compounds to treat apicomplexan parasitic diseases” (The University of Chicago, priority 2015, dated 2022)
Where two headings read alike, the source gives them in different places.

Columns and labels:
[1] = Microsomal metabolic stability, human; type: in vitro ADME; conditions: for half-life: human, liver microsomes
[2] = tested on: T. gondii tachyzoites (RH-YFP strain); assay: In vitro challenge assay for Toxoplasma tachyzoites (RH-YFP in HFF, fluorescence); type: cell-based, Toxoplasma gondii
In short: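 Confluent HFF monolayers infected with 3200 RH-YFP tachyzoites for 1-2 h, then compounds added (screen at 10 μM-10 nM; follow-up 1 μM-31.25 nM) and incubated 72 h at 37 °C. YFP fluorescence served as the measure of parasite burden; IC50 by graphical analysis.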

[3] = Toxoplasma gondii, RH-YFP, read-out: Tachy IC50

| Structure (SMILES) | Human liver microsomes T1/2 [1] | remaining after 45 mins in human liver microsomes ([1]; 45 mins) [%] | IC50 ([2]; Toxoplasma gondii, read-out: IC50 against tachyzoites / active infection) [µM] | IC50 [2, 3] [µM] | IC90 ([2]; Toxoplasma gondii, read-out: IC 90 against Toxoplasma gondii tachyzoites) [µM] | Human microsomal stability T1/2 [1] [h] | half-life ([1]; read-out: Human liver microsomes T1/2) [h] | half-life ([1]; read-out: Human microsomal stability T1/2) [h] | IC50 ([2]; Toxoplasma gondii, RH-YFP strain, read-out: T. gondii Tachyzoite IC50) [µM] | reduction of RH YFP tachyzoites in tissue culture ([2]; low nanoM levels) |
| --- | --- | --- | --- | --- | --- | --- | --- | --- | --- | --- |
| Cc1[nH]c2c(c(=O)c1-c1ccc(Oc3ccc(OC(F)(F)F)cc3)cc1)CCCC2 [JAG21, 2-methyl-3-(4-(4-(trifluoromethoxy)phenoxy)phenyl)-5,6,7,8-tetrahydroquinolin-4(1H)-one] | ∞ | > 99 | 0.188 | 0.09 | < 0.125 | – | – | – | – | – |
| Cc1[nH]c2c(c(=O)c1-c1ccc(Oc3ccccc3)cc1)CCCC2 [MJM170] | – | – | – | 0.03 | – | 2.438 | 2.44 | 2.43 | 0.03 | markedly reduces RH YFP tachyzoites |
